From US4474977A, “Amino-alcohol derivatives” (Continental Pharma S.A., priority 1977, dated 1984)
Like-named read-outs stand apart in the source and are kept apart here.

Key:
[1] = tested on: guinea pig ileum; assay: antispasmodic activity against contractions of guinea pig ileum induced by histamine and acetylcholine; settings: Cavia porcellus
Protocol: The antispasmodic activity of the products according to the invention was tested against contractions of guinea pig ileum, such as induced by histamine and acetylcholine. These tests allow to reveal an antihistaminic activity, an anticholinergic activity or a musculotropic antispasmodic activity. The response to the contracting agent (submaximum concentration)was repeated every 5 minutes before and after injection of increasing doses of the tested products (10^-8 to 10^-5 M). The various doses were added at intervals of 20 minutes or of the time necessary to the development of the maximum effect.
The percentage of inhibition under the influence of tested products was calculated and the theoretical concentration ensuring 50% inhibition was graphically determined for each experience. These values were expressed as -log IC50 (M). The standard value for papaverine was 4.50, namely an effective concentration of 30 μM.

[2] = tested on: femoral arterial circulation; assay: peripheral vasodilator activity on anaesthetized dog, femoral arterial perfusion pressure; assay type: in vivo; settings: 30 μg/kg injected in femoral perfusion (some also at other doses); in words
Protocol: The peripheral vasodilator activity of the products according to the invention was measured on anaesthetized dog at the level of the femoral arterial circulation. To this end, the femoral artery the collaterals of which were ligaturated was perfused with a constant flow rate of blood taken from aorta. Thus the perfusion pressure measured at the level of the femoral artery, varied as a function of the resistance of perfused area. The tested products and the corresponding solvents were directly injected in the system at the dose of 30 μg/kg. The blood circulation rate being maintained constant, a vasodilation was thus measured by a decrease of the perfusion pressure. The latter is rated in comparison with the action of papaverine considered as standard and injected once per group of 4 products.
When being of interest, the products were tested at other doses under the same conditions. The vasodilation activity was rated as follows:
+: 1/3 of the papaverine activity
++: 2/3 of the papaverine activity
+++: activity equal to that of papaverine (i.e. 30 to 40 mm Hg)
++++: activity higher than that of papaverine.

[3] = tested on: spontaneously hypertensive rats; assay: antihypertensive activity, oral administration to non-anesthetized spontaneously hypertensive rats, systolic arterial pressure (plethysmographic); assay type: in vivo, rat; settings: for antihypertensive activity: 60 mgr/kg oral (some also at other doses), in words; for antihypertensive effect (rating): oral
Protocol: Their antihypertensive activity was tested by oral administration to non-anesthetized, spontaneously hypertensive rats, on which the systolic arterial pressure is measured at the level of the median coccygeal artery by means of a plethysmographic method (J. Roba, G. Lambelin, A. F. De Schaepdryver, Arch. int. Pharmacodyn., 200, 182, 1972). The arterial pressure was measured every 30 minutes from two hours before to three hours after oral administration of 60 mgr/kg of the tested products or of a placebo (1% tragacanth gum mucilage). When being of interest, the products were tested at other doses under similar conditions. Only rats having a systolic pressure of 180 to 220 mm Hg were used. Two rats were used for each product. The treatments were made without the knowledge of the person making the measures. The antihypertensive effects were rated as follows:
+: reduction of 10 to 20 mm Hg
++: reduction of 20 to 30 mm Hg
+++: reduction of 30 to 50 mm Hg
++++: reduction >50 mm Hg

[4] = 50% inhibition of contractions, converted from -log IC50, read-out: effective concentration / concentration corresponding to -log IC50 (converted)
[5] = contractions induced by histamine and acetylcholine, 10^-8 to 10^-5 M, read-out: -log IC50 (M), antispasmodic activity (converted)
[6] = read-out: -log IC50 (M), antispasmodic activity (converted)
[7] = read-out: effective concentration / concentration corresponding to -log IC50 (converted)

Row | SMILES | IC50 [1, 4] [M] | IC50 [1, 5] [M] | peripheral vasodilator activity (compared with papaverine) [2] | antihypertensive activity [3] | other results
1 | CCCCCCCCN[C@@H](C)[C@@H](OC(=O)C1CCCCC1)c1ccc(SC(C)C)cc1 (relative stereo) [Compound 29] | < 1e-06 | < 1e-06 |  |  | 
2 | CCCCCCCCNC(C)C(OC(=O)CC)c1ccc(SC(C)C)cc1 (stereo not shown) [Compound 2] | < 1e-06 | < 1e-06 |  |  | 
3 | CCCCCCCCNC(C)C(OC(=O)C(C)C)c1ccc(SC(C)C)cc1 (stereo not shown) [Compound 4] | < 1e-06 | < 1e-06 | at least equal to that of papaverine |  | 
4 | CCCCCCCCNC(C)C(OC(=O)CCC)c1ccc(SC(C)C)cc1.Cl (stereo not shown) [Compound 6, 1-Butyryloxy-1-(4-isopropylthiophenyl)-2-n-octylaminopropane hydrochloride] | < 1e-06 | < 1e-06 | at least equal to that of papaverine |  | 
5 | CCCCCCCCNC(C)C(OC(=O)C1CCCCC1)c1ccc(SC(C)C)cc1 (stereo not shown) [Compound 7] |  |  |  | suitable antihypertensive activity | 
6 | CCCCCCCCNC(C)C(OC(=O)C1CCCC1)c1ccc(SC(C)C)cc1 (stereo not shown) [Compound 8] |  |  |  | suitable antihypertensive activity | 
7 | CCCCCCCCNC(C)C(OC(=O)C1CCC1)c1ccc(SC(C)C)cc1 (stereo not shown) [Compound 9] | < 1e-06 | < 1e-06 | at least equal to that of papaverine |  | 
8 | CC(C)Sc1ccc(C(OC(=O)C2CCC2)C(C)NCCCCc2ccccc2)cc1 (stereo not shown) [Compound 10] | < 1e-06 | < 1e-06 |  | suitable antihypertensive activity | 
9 | CCCCCCCCNC(C)C(OC(=O)CC)c1ccc(SC2CCCCC2)cc1 (stereo not shown) [Compound 11] | < 1e-06 | < 1e-06 |  |  | 
10 | CCCCCCCCNC(C)C(OC(C)=O)c1ccc(SC2CCCC2)cc1 (stereo not shown) [Compound 15] |  |  | at least equal to that of papaverine |  | IC50 [1, 6]: < 1e-06 M; IC50 [1, 7]: < 1e-06 M
11 | CCCCCCCCNC(C)C(OC(C)=O)c1ccc(OC(C)C)cc1 (stereo not shown) [Compound 18, 1-acetyloxy-1-(4-isopropyloxyphenyl)-2-n.octylaminopropane] |  |  | at least equal to that of papaverine | suitable antihypertensive activity | IC50 [1, 6]: < 1e-06 M; IC50 [1, 7]: < 1e-06 M
12 | CCCCCCCCNC(C)C(OC(=O)C(C)C)c1ccc(OCCCC)cc1 (stereo not shown) [Compound 19, 1-(p-n-Butyloxyphenyl)-1-sec-butyryloxy-2-n-octylaminopropane] |  |  |  | suitable antihypertensive activity | 
13 | CC(C)Oc1ccc(C(OC(=O)C2CCCCC2)C(C)NCCCCc2ccccc2)cc1 (stereo not shown) [Compound 20] | < 1e-06 | < 1e-06 | at least equal to that of papaverine | suitable antihypertensive activity | 
14 | CC(C)Sc1ccc(C(OC(=O)C(C)C)C(C)NCCOc2ccccc2)cc1 (stereo not shown) [Compound 22] | < 1e-06 | < 1e-06 |  |  | 
15 | CCCC(=O)OC(c1ccc(SC(C)C)cc1)C(C)NCCCCc1ccccc1 (stereo not shown) [Compound 23] | < 1e-06 | < 1e-06 | at least equal to that of papaverine |  | 
16 | CCCC(=O)OC(c1ccc(SC(C)C)cc1)C(C)NCCOc1ccccc1 (stereo not shown) [Compound 24] | < 1e-06 | < 1e-06 |  | suitable antihypertensive activity | 
17 | CC(=O)OC(c1ccc(SC(C)C)cc1)C(C)NCCOc1ccccc1 (stereo not shown) [Compound 25] |  |  |  | suitable antihypertensive activity | 
18 | CC(C)Sc1ccc(C(OC(=O)C(C)C)C(C)NCCCCc2ccccc2)cc1 (stereo not shown) [Compound 26] | < 1e-06 | < 1e-06 | at least equal to that of papaverine |  | 
19 | CC(=O)OC(c1ccc(SC(C)C)cc1)C(C)NCCCCc1ccccc1 (stereo not shown) [Compound 27] |  |  | at least equal to that of papaverine | suitable antihypertensive activity | IC50 [1, 6]: < 1e-06 M; IC50 [1, 7]: < 1e-06 M

Row | SMILES | IC50 [1, 4] [M] | IC50 [1, 5] [M] | peripheral vasodilator activity (compared with papaverine) [2] | antihypertensive activity [3] | other results
20 | CCCCCCCCNC(C)C(OC(=O)C1CC1)c1ccc(SC(C)C)cc1 (stereo not shown) [Compound 28] | < 1e-06 | < 1e-06 |  |  | 
21 | CCCCCCCCNC(C)C(OC(=O)CCCCC(=O)OC)c1ccc(SC(C)C)cc1 (stereo not shown) [Compound 31] | < 1e-06 | < 1e-06 |  |  | 
22 | CCCCCCCCNC(C)C(OC(=O)CCc1ccccc1)c1ccc(SC(C)C)cc1 (stereo not shown) [Compound 32] | < 1e-06 | < 1e-06 |  |  | 
23 | CCCCCCCCNC(C)C(OC(=O)Cc1ccccc1)c1ccc(SC(C)C)cc1 (stereo not shown) [Compound 34] |  |  |  | suitable antihypertensive activity | 
24 | CCCCCCCCNC(C)C(OC(=O)Cc1ccc(OC)cc1)c1ccc(SC(C)C)cc1 (stereo not shown) [Compound 35] |  |  |  | suitable antihypertensive activity | 
25 | CCCCCCCCNC(C)C(OC(=O)CC1CCCCC1)c1ccc(SC(C)C)cc1 (stereo not shown) [Compound 37] |  |  |  | suitable antihypertensive activity | 
26 | CC(=O)OC(c1ccc(SC(C)C)cc1)C(C)NCCCC(=O)c1ccc(F)cc1 (stereo not shown) [Compound 43] |  |  |  | suitable antihypertensive activity | 
27 | CCCCCCCCNC(C)C(O)c1ccc(OCC(C)C)cc1 (stereo not shown) [Compound 78] |  |  | at least equal to that of papaverine |  | IC50 [1, 6]: < 1e-06 M; IC50 [1, 7]: < 1e-06 M
28 | CCCCCCNC(C)C(O)c1ccc(OCC(C)C)cc1 (stereo not shown) [Compound 79] |  |  | at least equal to that of papaverine |  | 
29 | CCCCCCCCNC(C)C(O)c1ccc(C(C)C)cc1 (stereo not shown) [Compound 81, 1-(4-isopropylphenyl)-2-n-octylamino-1-propanol] |  |  | at least equal to that of papaverine |  | IC50 [1, 6]: < 1e-06 M; IC50 [1, 7]: < 1e-06 M
30 | CCCCCCCCCCCCNC(C)C(O)c1ccc(C(C)C)cc1 (stereo not shown) [Compound 82] |  |  | at least equal to that of papaverine |  | 
31 | CCCCCCNC(C)C(O)c1ccccc1 (stereo not shown) [Compound 83] |  |  | at least equal to that of papaverine |  | IC50 [1, 6]: < 1e-06 M; IC50 [1, 7]: < 1e-06 M
32 | CCCCCCCCNC(C)C(O)c1ccc(Cl)cc1 (stereo not shown) [Compound 85] |  |  | at least equal to that of papaverine |  | IC50 [1, 6]: < 1e-06 M; IC50 [1, 7]: < 1e-06 M
33 | CCCCCCCCCCCCNC(C)C(O)c1ccc(OC)cc1 (stereo not shown) [Compound 88] |  |  |  |  | IC50 [1, 6]: < 1e-06 M; IC50 [1, 7]: < 1e-06 M
34 | CCCCCCCCNC(C)C(O)c1ccc(OCCCC)cc1 (stereo not shown) [Compound 91, 1-(4-butoxyphenyl)-2-n-octylamino-1-propanol] |  |  | at least equal to that of papaverine |  | IC50 [1, 6]: < 1e-06 M; IC50 [1, 7]: < 1e-06 M
35 | CC(C)Oc1ccc(C(O)C(C)NCCCCc2ccccc2)cc1 (stereo not shown) [Compound 94, 1-(4-Isopropoxyphenyl)-2-(4-phenylbutylamino)-1-propanol] |  |  |  | suitable antihypertensive activity | 
36 | COc1ccc(Cc2nccc3cc(OC)c(OC)cc23)cc1OC [papaverine, reference compound] |  |  |  |  | IC50 [1, 6]: 3.16e-05 M; IC50 [1, 7]: 3e-05 M
37 | COC(=O)[C@H]1[C@H]2C[C@@H]3c4[nH]c5cc(OC)ccc5c4CCN3C[C@H]2C[C@@H](OC(=O)c2cc(OC)c(OC)c(OC)c2)[C@@H]1OC [reserpine, reference compound] |  |  |  |  | antihypertensive effect (rating) ([3]; 3 mgr/kg): +++ (reduction of 30 to 50 mm Hg)
38 | CC(N)(Cc1ccc(O)c(O)c1)C(=O)O (stereo not drawn) [α-methyldopa, reference compound] |  |  |  |  | antihypertensive effect (rating) ([3]; 100 mgr/kg): +++ (reduction of 30 to 50 mm Hg)
